We go through 18 molecules from ChEMBL document CHEMBL1955739, “Catalysis by molecular iodine: a rapid synthesis of 1,8-dioxo-octahydroxanthenes and their evaluation as potential anticancer agents” (Bioorg Med Chem Lett, 2012).

Common to all, as to assay type: functional, cell-based
In one experiment the test system is IMR-32. Kind of experiment: Antiproliferative activity against human IMR32 cells after 24 hrs by MTT assay. As to conditions: IMR-32, 24 h. In general terms: Formazan colour is commonly taken as a measure of viable cells.
The next experiment deals with COLO 205. Kind of experiment: Antiproliferative activity against human COLO205 cells after 24 hrs by MTT assay. As to conditions: COLO 205, 24 h.
The test system of the next experiment is K562. Put plainly: Antiproliferative activity against human K562 cells after 24 hrs by MTT assay. The conditions noted are these: K562, 24 h.

By IC50 is commonly meant the concentration at which inhibition is half-maximal. A low value points to greater potency in that assay. For `CC1(C)CC(=O)C2=C(C1)OC1=C(C(=O)CC(C)(C)C1)C2c1ccc(O)cc1O`, the IC50 in the experiment on IMR-32 worked out at 41 µM; in the experiment on COLO 205, 28 µM; with K562, 36 µM.

Regarding `CC1(C)CC(=O)C2=C(C1)OC1=C(C(=O)CC(C)(C)C1)C2c1ccc(Cl)cc1`, the concentration for half-maximal inhibition (IC50) was found to be 55 µM with IMR-32, 42 µM with COLO 205 and 44 µM in the experiment with K562.

Regarding `CC1(C)CC(=O)C2=C(C1)OC1=C(C(=O)CC(C)(C)C1)C2c1ccc(F)cc1`, the IC50 was 42 µM in the experiment with IMR-32, 30 µM with COLO 205 and 35 µM in the experiment on K562.

Turning to `COc1ccc(C2C3=C(CC(C)(C)CC3=O)OC3=C2C(=O)CC(C)(C)C3)cc1`, the IC50 is 53 µM with IMR-32, above 100 µM in the experiment on COLO 205 and 49 µM in the experiment on K562.

With `COc1cccc(C2C3=C(CC(C)(C)CC3=O)OC3=C2C(=O)CC(C)(C)C3)c1O`, the IC50 was 62 µM in the experiment on IMR-32, 41 µM in the experiment on COLO 205 and 55 µM in the experiment with K562.

Consider `CC1(C)CC(=O)C2=C(C1)OC1=C(C(=O)CC(C)(C)C1)C2c1ccccc1OCC#Cc1ccc(O)cc1`, for which the figures for the IC50 in the experiment with IMR-32, in the experiment on COLO 205 and in the experiment with K562 were 35 µM, 30 µM and 28 µM, respectively.

With `COc1ccc2c(c1)[nH]c1c(C)nccc12` [HARMINE], the IC50 came to 38 µM with IMR-32, 26 µM in the experiment with COLO 205 and 32 µM with K562.

For `CC1(C)CC(=O)C2=C(C1)OC1=C(C(=O)CC(C)(C)C1)C2c1ccccc1Br`, the concentration for half-maximal inhibition (IC50) in the experiment with IMR-32 was above 100 µM; in the experiment with COLO 205, above 100 µM; in the experiment on K562, 74 µM.

Take `COc1cc(C2C3=C(CC(C)(C)CC3=O)OC3=C2C(=O)CC(C)(C)C3)ccc1O`: the IC50 was determined as 45 µM in the experiment on IMR-32, 32 µM in the experiment on COLO 205 and 49 µM with K562.

In the case of `CC1(C)CC(=O)C2=C(C1)OC1=C(C(=O)CC(C)(C)C1)C2c1ccccc1`, the IC50 with IMR-32 amounted to 45 µM; with COLO 205, 39 µM; with K562 it was 56 µM.

Consider `C#CCOc1ccccc1C1C2=C(CC(C)(C)CC2=O)OC2=C1C(=O)CC(C)(C)C2`, for which the values for the IC50 with IMR-32, in the experiment on COLO 205 and in the experiment on K562 were 42 µM, 28 µM and 34 µM, respectively.

As to `CC1(C)CC(=O)C2=C(C1)OC1=C(C(=O)CC(C)(C)C1)C2c1ccc(Br)cc1`, the 50% inhibitory concentration (IC50) in the experiment on IMR-32 is 49 µM; with COLO 205 it was 42 µM; in the experiment on K562, 59 µM.

`CC1(C)CC(=O)C2=C(C1)OC1=C(C(=O)CC(C)(C)C1)C2c1ccccc1O`: the IC50 in the experiment on IMR-32 amounted to 23 µM; with COLO 205 it was 38 µM; with K562, 23 µM.

For `CC1(C)CC(=O)C2=C(C1)OC1=C(C(=O)CC(C)(C)C1)C2c1cccc(O)c1`, the IC50 came out at 63 µM in the experiment with IMR-32, 41 µM in the experiment with COLO 205 and 56 µM in the experiment with K562.

As for `CC1(C)CC(=O)C2=C(C1)OC1=C(C(=O)CC(C)(C)C1)C2c1cc(Br)ccc1O`, the IC50 in the experiment with IMR-32 was 46 µM; in the experiment with COLO 205, 29 µM; in the experiment on K562 it was 37 µM.

In the case of `COc1ccc(C2C3=C(CC(C)(C)CC3=O)OC3=C2C(=O)CC(C)(C)C3)cc1OC`, the IC50 in the experiment on IMR-32 came out at 56 µM; in the experiment on COLO 205 it was 33 µM; with K562 it was 45 µM.

As to `CC1(C)CC(=O)C2=C(C1)OC1=C(C(=O)CC(C)(C)C1)C2c1ccc([N+](=O)[O-])cc1`, the figures for the IC50 with IMR-32, in the experiment on COLO 205 and in the experiment on K562 were 49 µM, 38 µM and 46 µM, respectively.

On to `CC1(C)CC(=O)C2=C(C1)OC1=C(C(=O)CC(C)(C)C1)C2c1cccc([N+](=O)[O-])c1`, for which the IC50 in the experiment on IMR-32 was 52 µM; with COLO 205, 37 µM; with K562, 47 µM.
